Laboratory results: US20050074879A1, “Antisense oligonucleotide modulation of STAT3 expression” (priority 2000, published 2005)
Oligonucleotides are written 5' to 3', each unit as a sugar letter and its base; * is a phosphorothioate linkage, no mark a phosphodiester; rarer units and linkages stand in square brackets, end groups in braces. Plain capitals give the bases only. e = 2'-O-(2-methoxyethyl) (MOE); [5mC] = 5-methylcytosine; d = 2'-deoxy (DNA)

System: Human STAT3 mRNA
Test: Inhibition of human STAT3 mRNA levels in A549 cells, 75 nM, real-time PCR (Table 13)
Format: cell-based
Conditions: 75 nM oligonucleotide with LIPOFECTIN, real-time PCR PPS 199, percent inhibition relative to untreated control cells, average of 2 experiments
Procedure, shortened: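 A549 cells at 65–75% confluency were transfected in duplicate with 75 nM oligonucleotide plus […] Lipofectin for 4–7 h at 37° C and harvested 16–24 h later. STAT3 mRNA was quantified by real-time RT-PCR with primer-probe set PPS 199 and normalized to RiboGreen total RNA. Inhibition is relative to untreated controls.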

Row | Substance | % Inhib (inhibition of human STAT 3 mRNA levels) [%]
1 | 337280 (antisense eT*eT*eA*eT*eA*dG*dT*dT*dG*dA*dA*dA*dT*d[5mC]*dA*eA*eA*eG*eT*e[5mC]) [compound 337280] | 45
2 | 337372 (antisense eA*eT*e[5mC]*eA*eT*dG*dG*dG*dT*d[5mC]*dT*d[5mC]*dA*dG*dA*eG*eA*eA*e[5mC]*eA) [compound 337372] | 88
3 | 337254 (antisense e[5mC]*eT*eT*eG*eT*dT*d[5mC]*d[5mC]*d[5mC]*dT*d[5mC]*dG*dG*d[5mC]*dT*eG*e[5mC]*eG*eA*e[5mC]) [compound 337254] | 57
4 | 337328 (antisense e[5mC]*eA*eT*eG*eT*dG*dA*dT*d[5mC]*dT*dG*dA*d[5mC]*dA*d[5mC]*e[5mC]*e[5mC]*eT*eG*eA) [compound 337328] | 85
5 | 337274 (antisense eT*eG*eA*eA*eG*dG*dT*dG*d[5mC]*dT*dG*d[5mC]*dT*d[5mC]*d[5mC]*eA*eG*e[5mC]*eA*eT) [compound 337274] | 74
6 | 337364 (antisense eG*eG*eT*eG*eA*dG*dG*dG*dA*d[5mC]*dT*d[5mC]*dA*dA*dA*e[5mC]*eT*eG*e[5mC]*e[5mC]) [compound 337364] | 70
7 | 337320 (antisense e[5mC]*eT*eG*eG*e[5mC]*dA*dA*dG*dG*dA*dG*dT*dG*dG*dG*eT*e[5mC]*eT*e[5mC]*eT) [compound 337320] | 74
8 | 337263 (antisense eT*e[5mC]*eT*eT*eG*dA*d[5mC]*dT*d[5mC]*dT*d[5mC]*dA*dA*dT*d[5mC]*e[5mC]*eA*eA*eG*eG) [compound 337263] | 79
9 | 337258 (antisense eT*e[5mC]*e[5mC]*eG*eG*d[5mC]*dA*dG*dA*dG*dG*d[5mC]*d[5mC]*dG*dA*eG*eA*eG*eG*e[5mC]) [compound 337258] | 56
10 | 337291 (antisense e[5mC]*eT*eT*e[5mC]*eT*d[5mC]*d[5mC]*dG*d[5mC]*dA*dT*d[5mC]*dT*dG*dG*eT*e[5mC]*e[5mC]*eA*eG) [compound 337291] | 66
11 | 337316 (antisense eT*e[5mC]*eA*eA*eT*d[5mC]*dT*dT*dG*dA*dG*dG*d[5mC]*d[5mC]*dT*eT*eG*eG*eT*eG) [compound 337316] | 59
12 | 337319 (antisense eA*eA*eG*eG*eA*dG*dT*dG*dG*dG*dT*d[5mC]*dT*d[5mC]*dT*eA*eG*eG*eT*e[5mC]) [compound 337319] | 38
13 | 337368 (antisense eT*eT*eT*eT*eT*dA*dA*dA*dA*dG*dT*dG*d[5mC]*d[5mC]*d[5mC]*eA*eG*eA*eT*eT) [compound 337368] | 59
14 | 337294 (antisense e[5mC]*eT*e[5mC]*eT*eT*d[5mC]*d[5mC]*dA*dG*dT*d[5mC]*dA*dG*d[5mC]*d[5mC]*eA*eG*e[5mC]*eT*e[5mC]) [compound 337294] | 75
15 | 337340 (antisense eA*eT*eT*eT*e[5mC]*dA*dG*d[5mC]*dA*dA*dA*dT*dG*dA*d[5mC]*eA*eT*eG*eT*eT) [compound 337340] | 72
16 | 337282 (antisense e[5mC]*eT*eT*eG*eA*dG*dG*dG*dT*dT*dT*dT*dA*dT*dA*eG*eT*eT*eG*eA) [compound 337282] | 58
17 | 337311 (antisense eT*e[5mC]*eT*e[5mC]*eT*dG*d[5mC]*dT*d[5mC]*d[5mC]*d[5mC]*dT*d[5mC]*dA*dG*eG*eG*eT*e[5mC]*eA) [compound 337311] | 61
18 | 337365 (antisense e[5mC]*eA*eG*eT*e[5mC]*dG*dT*dA*dT*d[5mC]*dT*dT*dT*d[5mC]*dT*eG*e[5mC]*eA*eG*e[5mC]) [compound 337365] | 84
19 | 337310 (antisense eA*eA*eG*eT*eG*dT*dT*dT*dG*dA*dA*dT*dT*d[5mC]*dT*eG*e[5mC]*eA*eG*eA) [compound 337310] | 73
20 | 337306 (antisense eG*e[5mC]*eA*e[5mC]*eA*d[5mC]*dT*dT*dT*dA*dA*dT*dT*dT*dT*eA*eA*eG*e[5mC]*eT) [compound 337306] | 77
21 | 337255 (antisense eG*e[5mC]*e[5mC]*eT*eG*dT*d[5mC]*d[5mC]*dA*dG*dG*dA*dT*d[5mC]*d[5mC]*eG*eG*eT*eT*eG) [compound 337255] | 75
22 | 337264 (antisense e[5mC]*eG*e[5mC]*eA*eT*dA*dT*dG*d[5mC]*d[5mC]*d[5mC]*dA*dA*dT*d[5mC]*eT*eT*eG*eA*e[5mC]) [compound 337264] | 81
23 | 337283 (antisense eT*eG*eA*e[5mC]*eT*d[5mC]*dT*dT*dG*dA*dG*dG*dG*dT*dT*eT*eT*eA*eT*eA) [compound 337283] | 71
24 | 337272 (antisense eA*eT*e[5mC]*eT*eG*d[5mC]*dT*dG*d[5mC]*dT*dT*d[5mC]*dT*d[5mC]*d[5mC]*eG*eT*e[5mC]*eA*e[5mC]) [compound 337272] | 74
25 | 337353 (antisense eG*eT*e[5mC]*eG*eT*dT*dG*dG*dT*dG*dT*d[5mC]*dA*d[5mC]*dA*e[5mC]*eA*eG*eA*eT) [compound 337353] | 81
26 | 337351 (antisense e[5mC]*eT*eA*e[5mC]*e[5mC]*dT*dG*dG*dG*dT*d[5mC]*dA*dG*d[5mC]*dT*eT*e[5mC]*eA*eG*eG) [compound 337351] | 74
27 | 337346 (antisense eA*eA*eT*eG*eT*d[5mC]*dA*dG*dG*dA*dT*dA*dG*dA*dG*eA*eT*eA*eG*eA) [compound 337346] | 55
28 | 337335 (antisense eT*e[5mC]*e[5mC]*eA*eG*d[5mC]*d[5mC]*dA*dG*dA*d[5mC]*d[5mC]*d[5mC]*dA*dG*eA*eA*eG*eG*eA) [compound 337335] | 86
